Measurements from the NIST ThermoML archive (doi:10.1016/j.jct.2006.05.008).

Experiment: molar heat capacity at constant pressure
Conditions: 101.33 kPa

CCC[n+]1ccn(C)c1.[Br-] [1-methyl-3-propylimidazolium bromide]
Conditions	molar heat capacity at constant pressure [J/K/mol]
199.31 K, Crystal, Vacuum adiabatic calorimetry	164.75
199.46 K, Glass, Small (less than 1 g) adiabatic calorimetry	175.22
200.05 K, Glass, Small (less than 1 g) adiabatic calorimetry	176.21
200.67 K, Crystal, Vacuum adiabatic calorimetry	166
200.97 K, Metastable crystal, Small (less than 1 g) adiabatic calorimetry	168.83
201.03 K, Crystal, Vacuum adiabatic calorimetry	166.26
201.36 K, Crystal, Vacuum adiabatic calorimetry	166.53
202.03 K, Crystal, Vacuum adiabatic calorimetry	167.06
202.22 K, Glass, Small (less than 1 g) adiabatic calorimetry	178.79
202.47 K, Glass, Small (less than 1 g) adiabatic calorimetry	180.24
203.09 K, Crystal, Vacuum adiabatic calorimetry	167.78
203.39 K, Crystal, Vacuum adiabatic calorimetry	168.1
203.43 K, Crystal, Vacuum adiabatic calorimetry	167.91
203.43 K, Metastable crystal, Small (less than 1 g) adiabatic calorimetry	170.24
204.75 K, Crystal, Vacuum adiabatic calorimetry	169.11
204.84 K, Glass, Small (less than 1 g) adiabatic calorimetry	187.91
204.96 K, Glass, Small (less than 1 g) adiabatic calorimetry	184.36
205.16 K, Crystal, Vacuum adiabatic calorimetry	169.18
205.49 K, Crystal, Vacuum adiabatic calorimetry	169.21
205.88 K, Metastable crystal, Small (less than 1 g) adiabatic calorimetry	171.68
206.12 K, Crystal, Vacuum adiabatic calorimetry	170
207.12 K, Glass, Small (less than 1 g) adiabatic calorimetry	199.89
207.47 K, Crystal, Vacuum adiabatic calorimetry	170.79
207.56 K, Crystal, Vacuum adiabatic calorimetry	170.75
207.61 K, Glass, Small (less than 1 g) adiabatic calorimetry	196
208.34 K, Metastable crystal, Small (less than 1 g) adiabatic calorimetry	173.15
208.84 K, Crystal, Vacuum adiabatic calorimetry	171.68
209.31 K, Glass, Small (less than 1 g) adiabatic calorimetry	214.39
209.63 K, Crystal, Vacuum adiabatic calorimetry	172.23
210.02 K, Glass, Small (less than 1 g) adiabatic calorimetry	225.97
210.2 K, Crystal, Vacuum adiabatic calorimetry	172.56
210.79 K, Metastable crystal, Small (less than 1 g) adiabatic calorimetry	174.52
211.34 K, Glass, Small (less than 1 g) adiabatic calorimetry	239.57
211.57 K, Crystal, Vacuum adiabatic calorimetry	173.4
211.7 K, Crystal, Vacuum adiabatic calorimetry	173.55
212.2 K, Liquid, Small (less than 1 g) adiabatic calorimetry	259.73
212.93 K, Crystal, Vacuum adiabatic calorimetry	174.3
213.23 K, Metastable crystal, Small (less than 1 g) adiabatic calorimetry	176.24
213.27 K, Glass, Small (less than 1 g) adiabatic calorimetry	257.87
213.77 K, Crystal, Vacuum adiabatic calorimetry	174.86
214.3 K, Crystal, Vacuum adiabatic calorimetry	175.3
214.46 K, Liquid, Small (less than 1 g) adiabatic calorimetry	259.1
215.25 K, Liquid, Small (less than 1 g) adiabatic calorimetry	259.12
215.66 K, Crystal, Vacuum adiabatic calorimetry	176.2
215.67 K, Metastable crystal, Small (less than 1 g) adiabatic calorimetry	177.87
215.84 K, Crystal, Vacuum adiabatic calorimetry	176.33
216.73 K, Liquid, Small (less than 1 g) adiabatic calorimetry	260.04
217.03 K, Crystal, Vacuum adiabatic calorimetry	177.11
217.09 K, Liquid, Small (less than 1 g) adiabatic calorimetry	259.63
217.24 K, Liquid, Small (less than 1 g) adiabatic calorimetry	260
217.9 K, Liquid, Small (less than 1 g) adiabatic calorimetry	259.51
217.92 K, Crystal, Vacuum adiabatic calorimetry	177.82
218.11 K, Metastable crystal, Small (less than 1 g) adiabatic calorimetry	179.69
218.4 K, Crystal, Vacuum adiabatic calorimetry	178.04
219.01 K, Liquid, Small (less than 1 g) adiabatic calorimetry	260.43
219.18 K, Liquid, Small (less than 1 g) adiabatic calorimetry	259.88
219.24 K, Liquid, Small (less than 1 g) adiabatic calorimetry	260.35
219.77 K, Crystal, Vacuum adiabatic calorimetry	179.06
219.98 K, Liquid, Small (less than 1 g) adiabatic calorimetry	259.88
219.99 K, Crystal, Vacuum adiabatic calorimetry	179.17
220.54 K, Metastable crystal, Small (less than 1 g) adiabatic calorimetry	181.19
221.14 K, Crystal, Vacuum adiabatic calorimetry	179.92
221.23 K, Liquid, Small (less than 1 g) adiabatic calorimetry	260.68
221.29 K, Liquid, Small (less than 1 g) adiabatic calorimetry	260.8
222.07 K, Crystal, Vacuum adiabatic calorimetry	180.63
222.07 K, Liquid, Small (less than 1 g) adiabatic calorimetry	260.23
222.51 K, Crystal, Vacuum adiabatic calorimetry	180.9
222.97 K, Metastable crystal, Small (less than 1 g) adiabatic calorimetry	182.89
223.23 K, Liquid, Small (less than 1 g) adiabatic calorimetry	261
223.57 K, Liquid, Small (less than 1 g) adiabatic calorimetry	261.15
223.88 K, Crystal, Vacuum adiabatic calorimetry	181.95
224.15 K, Crystal, Vacuum adiabatic calorimetry	182.18
224.16 K, Liquid, Small (less than 1 g) adiabatic calorimetry	260.59
225.24 K, Liquid, Small (less than 1 g) adiabatic calorimetry	261.29
225.25 K, Crystal, Vacuum adiabatic calorimetry	182.95
225.39 K, Metastable crystal, Small (less than 1 g) adiabatic calorimetry	184.41
225.86 K, Liquid, Small (less than 1 g) adiabatic calorimetry	261.58
226.23 K, Crystal, Vacuum adiabatic calorimetry	183.69
226.24 K, Liquid, Small (less than 1 g) adiabatic calorimetry	260.96
226.63 K, Crystal, Vacuum adiabatic calorimetry	183.97
227.24 K, Liquid, Small (less than 1 g) adiabatic calorimetry	261.74
227.8 K, Metastable crystal, Small (less than 1 g) adiabatic calorimetry	186.11
228 K, Crystal, Vacuum adiabatic calorimetry	184.96
228.15 K, Liquid, Small (less than 1 g) adiabatic calorimetry	262.01
228.31 K, Crystal, Vacuum adiabatic calorimetry	185.39
228.33 K, Liquid, Small (less than 1 g) adiabatic calorimetry	261.35
229.25 K, Liquid, Small (less than 1 g) adiabatic calorimetry	262.21
229.38 K, Crystal, Vacuum adiabatic calorimetry	186.04
230.21 K, Metastable crystal, Small (less than 1 g) adiabatic calorimetry	187.89
230.39 K, Crystal, Vacuum adiabatic calorimetry	186.96
230.42 K, Liquid, Small (less than 1 g) adiabatic calorimetry	261.8
230.44 K, Liquid, Small (less than 1 g) adiabatic calorimetry	262.44
230.75 K, Crystal, Vacuum adiabatic calorimetry	187.19
231.26 K, Liquid, Small (less than 1 g) adiabatic calorimetry	262.65
232.13 K, Crystal, Vacuum adiabatic calorimetry	188.21
232.47 K, Crystal, Vacuum adiabatic calorimetry	188.55
232.51 K, Liquid, Small (less than 1 g) adiabatic calorimetry	262.24
232.62 K, Metastable crystal, Small (less than 1 g) adiabatic calorimetry	189.5
232.74 K, Liquid, Small (less than 1 g) adiabatic calorimetry	263.08
233.01 K, Crystal, Vacuum adiabatic calorimetry	189.36
233.27 K, Liquid, Small (less than 1 g) adiabatic calorimetry	263.01
233.5 K, Crystal, Vacuum adiabatic calorimetry	189.25
234.55 K, Crystal, Vacuum adiabatic calorimetry	190.14
234.61 K, Liquid, Small (less than 1 g) adiabatic calorimetry	262.58
234.88 K, Crystal, Vacuum adiabatic calorimetry	190.37
235.03 K, Liquid, Small (less than 1 g) adiabatic calorimetry	263.49
235.28 K, Liquid, Small (less than 1 g) adiabatic calorimetry	263.42
235.72 K, Metastable crystal, Small (less than 1 g) adiabatic calorimetry	191.63
236.26 K, Crystal, Vacuum adiabatic calorimetry	191.4
236.63 K, Crystal, Vacuum adiabatic calorimetry	191.86
236.7 K, Liquid, Small (less than 1 g) adiabatic calorimetry	263.12
237.29 K, Liquid, Small (less than 1 g) adiabatic calorimetry	263.79
237.33 K, Liquid, Small (less than 1 g) adiabatic calorimetry	263.86
237.63 K, Crystal, Vacuum adiabatic calorimetry	192.56
238.14 K, Metastable crystal, Small (less than 1 g) adiabatic calorimetry	193.62
238.71 K, Crystal, Vacuum adiabatic calorimetry	193.49
238.79 K, Liquid, Small (less than 1 g) adiabatic calorimetry	264.33
239.01 K, Crystal, Vacuum adiabatic calorimetry	193.7
239.3 K, Liquid, Small (less than 1 g) adiabatic calorimetry	264.2
239.63 K, Liquid, Small (less than 1 g) adiabatic calorimetry	264.39
240.21 K, Liquid, Small (less than 1 g) adiabatic calorimetry	263.92
240.38 K, Crystal, Vacuum adiabatic calorimetry	194.84
240.53 K, Metastable crystal, Small (less than 1 g) adiabatic calorimetry	195.14
240.78 K, Crystal, Vacuum adiabatic calorimetry	195.37
240.89 K, Liquid, Small (less than 1 g) adiabatic calorimetry	264.51
241.32 K, Liquid, Small (less than 1 g) adiabatic calorimetry	264.76
241.76 K, Crystal, Vacuum adiabatic calorimetry	196.04
241.93 K, Liquid, Small (less than 1 g) adiabatic calorimetry	265.02
242.32 K, Liquid, Small (less than 1 g) adiabatic calorimetry	264.51
242.39 K, Crystal, Vacuum adiabatic calorimetry	197.23
242.86 K, Crystal, Vacuum adiabatic calorimetry	197.07
242.91 K, Metastable crystal, Small (less than 1 g) adiabatic calorimetry	197.2
243.14 K, Crystal, Vacuum adiabatic calorimetry	197.19
243.34 K, Liquid, Small (less than 1 g) adiabatic calorimetry	265.19
244.23 K, Liquid, Small (less than 1 g) adiabatic calorimetry	265.58
